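Assay format: 96-well plates, 48-hour exposure. TGI marks complete inhibition of growth.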
What was measured:
Assay in all cases: NCI anticancer screen, dose series, 48 h
[1] = tested on: COLO 205 colon
[2] = tested on: A549 NSCLC
[3] = tested on: OVCAR-4 ovarian
[4] = tested on: SN12C renal
[5] = tested on: NCI-H23 lung
[6] = tested on: UACC-257 melanoma
[7] = tested on: SF-539 CNS
[8] = tested on: RXF 393 renal
[9] = tested on: HCC-2998 colon
[10] = tested on: 786-0 renal

Compound | TGI [1] | TGI [2] | TGI [3] | TGI [4] | TGI [5] | TGI [6] | TGI [7] | TGI [8] | TGI [9] | TGI [10]
Cc1ccc(C(=O)Nc2ccc(S(=O)(=O)O)c3cc(S(=O)(=O)O)cc(S(=O)(=O)O)c23)cc1NC(=O)c1cccc(NC(=O)Nc2cccc(C(=O)Nc3cc(C(=O)Nc4ccc(S(=O)(=O)O)c5cc(S(=O)(=O)O)cc(S(=O)(=O)O)c45)ccc3C)c2)c1 (tested in a mixture with another compound) | > 50 µM | > 50 µM | > 50 µM | > 50 µM | > 50 µM | > 50 µM | > 50 µM | > 50 µM | > 50 µM | > 50 µM
CCOC(=O)C(C(=O)OCC)=C1NC2(c3ccccc3Nc3ccc(C)cc32)C(C(=O)OC)S1 (centres undefined) | 57.9 µM | > 100 µM | > 100 µM | 18.2 µM | > 100 µM | > 100 µM | > 100 µM | 70.6 µM | > 100 µM | > 100 µM
CC(C)OC(=O)[C@@H](O)[C@H](CO)C1=CC([Si](C)(C)c2ccccc2)=CON1 | > 100 µM | > 100 µM | > 100 µM | – | > 100 µM | > 100 µM | > 100 µM | > 100 µM | > 100 µM | > 100 µM
CCN(CC)CCCC(C)NC(=O)c1ccc2c(c1)C(=O)c1ccccc1C2=O (centres undefined) | 23.3 µM | 57.4 µM | 30.4 µM | 37.6 µM | 24.2 µM | 26.1 µM | 36 µM | 42.8 µM | 33.5 µM | 39.5 µM
CC(NC(=O)C(N)CC(=O)O)NC(=O)N(C)C(C)(C)C (centres undefined) | > 100 µM | > 100 µM | > 100 µM | > 100 µM | > 100 µM | > 100 µM | > 100 µM | > 100 µM | > 100 µM | > 100 µM
C=C(C(=O)OC)c1cc2ccccc2n1S(=O)(=O)c1ccccc1 | 3.82 µM | 31.9 µM | 11.3 µM | 8.18 µM | 11.5 µM | 18.7 µM | 3.66 µM | 2.54 µM | 8.35 µM | > 33.5 µM
N#Cc1ccc(Oc2nc3ccc(C(F)(F)F)cc3nc2-c2ccccc2)cc1 | 50.9 µM | 35.9 µM | 32.4 µM | 40.9 µM | 32 µM | 54.7 µM | 89.3 µM | 77.8 µM | 32.3 µM | 30.8 µM
S=C(Nc1ccccn1)Nc1ccccc1Cl | > 100 µM | > 100 µM | > 100 µM | > 100 µM | > 100 µM | > 100 µM | > 100 µM | > 100 µM | > 100 µM | > 100 µM
O=[N+]([O-])c1c2nc3n(c2cc2c1nc1n2CCC1)CCC3 | > 100 µM | > 100 µM | > 100 µM | > 100 µM | > 100 µM | > 100 µM | > 100 µM | > 100 µM | > 100 µM | > 100 µM
CC(C)(C)[C@H]1CCC2(OCCO2)[C@](O)(CCCO)C1 | > 100 µM | > 100 µM | > 100 µM | > 100 µM | > 100 µM | > 100 µM | > 100 µM | > 100 µM | > 100 µM | > 100 µM
CC(C)C(=O)/C=C/c1ccc(Cl)c(Cl)c1 | 52.3 µM | 49.2 µM | > 100 µM | 29.2 µM | 36.5 µM | 45.1 µM | 26 µM | 33.5 µM | 33.2 µM | 27.6 µM
CC1(C)CCC(=O)NC1CC(=O)CC1NC(=O)CCC1(C)C (centres undefined) | > 100 µM | > 100 µM | > 100 µM | > 100 µM | > 100 µM | > 100 µM | > 100 µM | > 100 µM | > 100 µM | > 100 µM
C[C@]1(O)O[C@@H]2OCC[C@@H]2C2=C1C(=O)c1ccccc1C2=O | 53.9 µM | 35.2 µM | 28.4 µM | 51.1 µM | 31.6 µM | 31 µM | 31.7 µM | 27.2 µM | 40.6 µM | 28.8 µM
CC(C)(C)c1ccc(C(C)(C)C)c(N2C(=O)C3ON=C(c4ccc([N+](=O)[O-])cc4)C3C2=O)c1 (centres undefined) | > 25 µM | > 25 µM | > 25 µM | > 25 µM | > 25 µM | > 25 µM | > 25 µM | > 25 µM | > 25 µM | 9.71 µM
CC(=O)N1c2ccccc2C(C)C1c1[nH]c2ccccc2c1C (centres undefined) | 27.9 µM | 83.2 µM | > 100 µM | 33.9 µM | > 100 µM | 49.3 µM | 27.2 µM | 28.4 µM | 34 µM | 39.9 µM
CCCCCCC(C)OC(=O)/C=C(\CC(=O)OC(C)CCCCCC)C(=O)OC(C)CCCCCC (centres undefined) | > 100 µM | > 100 µM | > 100 µM | > 100 µM | > 100 µM | > 100 µM | > 100 µM | > 100 µM | > 100 µM | > 100 µM
N=c1c2c(=S)n(-c3ccccc3)c(=S)n(-c3ccccc3)c2nc(SCCN2CCOCC2)n1-c1ccccc1 | 3.66 µM | 3.36 µM | 3.4 µM | 3.71 µM | 7.02 µM | 4.28 µM | 8.83 µM | 3.55 µM | 3.24 µM | 3.14 µM
Cc1ccc(S(=O)(=O)N2CCNCCN(S(=O)(=O)c3ccc(C)cc3)CCN(S(=O)(=O)c3ccc(C)cc3)CC2)cc1 | > 100 µM | > 100 µM | > 100 µM | > 100 µM | > 100 µM | > 100 µM | > 100 µM | > 100 µM | > 100 µM | > 100 µM
NC1CC(=O)c2sccc21 (centres undefined) | > 100 µM | > 100 µM | > 100 µM | > 100 µM | > 100 µM | > 100 µM | > 100 µM | > 100 µM | > 100 µM | > 100 µM
c1ccc(C2=NCCc3cc4c(cc32)OCO4)cc1 | > 100 µM | > 100 µM | > 100 µM | > 100 µM | > 100 µM | > 100 µM | > 100 µM | > 100 µM | > 100 µM | > 100 µM

— PubChem BioAssay (NCI)
